# Test results as given in patent publication US6946121B2, “Composition in particular cosmetic or dermatological composition, containing oligosaccharides and preparation method and cosmetic treatment method” (Laboratories G Pharm, priority 1999, dated 2005).
# Entries after “also recorded” stand apart in the source; their conditions may differ.
# System: human basophils
# Assay: antidegranulating or antiactivating activity on human basophils by flow cytometry (anti-IgE stimulation, CD63 label)
# Type: cell-based
# Conditions: in vitro, same experimental conditions as the oligosaccharides
# Description: In order to test the antidegranulating or antiactivating activity of the oligosaccharides on human basophils by flow cytometry, leukocyte suspensions from different individuals selected as being good at responding to anti-IgE were used to isolate the leukocytes, by simple sedimentation at 1 g. These leukocytes are preincubated for 30 minutes with successive dilutions from 10 to 0.01 mg/ml of the test product. The basophils are then stimulated with a target concentration of a human anti-IgE labeled with a mixture of anti-IgE FITC and anti-CD63PE antibodies, CD63 being an activation label for human basophils. The percentages of activation or of inhibition are then calculated by flow cytometry. The biological activity of the oligosaccharides was thus evaluated.
# The same biological tests were performed on structural analogs such as raffinose or oligosaccharides comprising an α bond between a galactose unit and another saccharide unit such as in melibiose.
# Tests were thus undertaken. […] The percentage of inhibition was calculated by repeating the experiment three times.
compound,measurement,value
OC[C@H]1O[C@H](OCC2O[C@@H](O)[C@H](O)[C@@H](O)[C@@H]2O)[C@H](O)[C@@H](O)[C@H]1O (stereo partly shown) [melibiose],activity on leukocytes / mastocytes,not active; also recorded: absolutely no activity
